According to paper PMC2606016 (The Journal of Biological Chemistry, 2008):

Experiments:
HoNTT = molecular target: T1, HoNTT (Holospora obtusa, UniProt W6TTK3); conditions: 30 °C; labelled compound
T1 sequence (W6TTK3 1-514): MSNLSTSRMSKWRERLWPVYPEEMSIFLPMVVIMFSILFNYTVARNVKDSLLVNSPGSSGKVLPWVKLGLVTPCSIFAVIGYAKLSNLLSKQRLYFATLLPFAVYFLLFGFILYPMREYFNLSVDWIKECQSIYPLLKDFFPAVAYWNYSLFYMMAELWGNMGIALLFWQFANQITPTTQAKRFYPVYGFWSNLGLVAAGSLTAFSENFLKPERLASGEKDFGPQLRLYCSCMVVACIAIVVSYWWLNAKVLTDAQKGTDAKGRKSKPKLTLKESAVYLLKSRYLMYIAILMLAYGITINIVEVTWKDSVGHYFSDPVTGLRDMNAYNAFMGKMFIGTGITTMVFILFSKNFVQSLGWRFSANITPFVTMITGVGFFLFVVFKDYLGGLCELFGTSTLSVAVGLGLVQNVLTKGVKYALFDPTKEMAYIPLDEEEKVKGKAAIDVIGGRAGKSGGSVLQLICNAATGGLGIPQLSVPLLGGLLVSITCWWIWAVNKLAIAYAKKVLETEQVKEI

AtNTT1 = molecular target: T2, AtNTT1 (Arabidopsis thaliana, UniProt Q39002); conditions: 30 °C; labelled compound
T2 sequence (Q39002 87-624): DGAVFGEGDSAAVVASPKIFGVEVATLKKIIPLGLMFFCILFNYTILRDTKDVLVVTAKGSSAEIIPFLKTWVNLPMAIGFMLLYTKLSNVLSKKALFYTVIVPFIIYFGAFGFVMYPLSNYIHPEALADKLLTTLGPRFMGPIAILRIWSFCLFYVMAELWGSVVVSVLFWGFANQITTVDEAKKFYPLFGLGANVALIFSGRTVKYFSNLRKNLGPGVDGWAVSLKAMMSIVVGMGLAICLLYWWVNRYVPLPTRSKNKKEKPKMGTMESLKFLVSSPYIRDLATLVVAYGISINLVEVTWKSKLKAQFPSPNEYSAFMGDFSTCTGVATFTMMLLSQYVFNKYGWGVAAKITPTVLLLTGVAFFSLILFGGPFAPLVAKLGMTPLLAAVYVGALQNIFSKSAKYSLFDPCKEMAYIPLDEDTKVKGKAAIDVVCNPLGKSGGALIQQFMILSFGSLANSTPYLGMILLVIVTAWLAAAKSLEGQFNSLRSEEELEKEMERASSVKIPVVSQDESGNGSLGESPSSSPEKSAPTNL

## Nc1ncnc2c1ncn2[C@@H]1O[C@H](COP(=O)(O)OP(=O)(O)OP(=O)(O)O)[C@@H](O)[C@H]1O [ATP]
HoNTT
  uptake of labelled substrate into proteoliposomes: All recombinant carriers mediated ATP and ADP transport
AtNTT1
  uptake of labelled substrate into proteoliposomes: All recombinant carriers mediated ATP and ADP transport
